Assay results from patent publication US8609814B2, “Modified globin proteins with altered electron transport pathway” (University of Essex Enterprises Limited, priority 2007, dated 2013).

Legend:
[1] = ferryl human haemoglobin reduction kinetics by ascorbate; type: biochemical; conditions: reductant ascorbate; 10 μM ferryl protein; sodium phosphate pH 7.4; double exponential fit
Text: Recombinant human haemoglobin was reacted with peroxide and the kinetics of ferryl haem reduction by ascorbate determined as described in example 1. The time course of ferryl haem reduction is not single exponential, as observed with myoglobin, but can be described using a double exponential function that generates two rate constants, one representing the observed rate constant for ferryl reduction of the alpha subunit and one representing the observed rate constant for ferryl reduction of the beta subunit.

[2] = ferryl myoglobin reduction kinetics by deferiprone; type: biochemical; conditions: for concentration dependence of ferryl reduction rate constant (high affinity through-protein electron transfer pathway): reductant deferiprone, ferryl myoglobin 10 μM, sodium phosphate pH 7.4, 25° C.
Protocol: In this example the kinetics of the reduction of ferryl haem from myoglobin from different species to ferric haem protein were examined kinetically to determine the presence or absence of a high affinity-through protein pathway. Following the procedure, ferric horse myoglobin from Sigma-Aldrich (Poole, Dorset, UK, further purified by gel filtration), or recombinant ferric Aplysia myoglobin Mb (20 μM) in 5 mM sodium phosphate pH 7.4 was reacted with H2O2 (20 μM) at 25° C. for 15 min. At this time conversion of ferric myoglobin to ferryl myoglobin was greater than 95% as measured by addition of sodium sulfide (1 mM). Catalase (10 nM) was added to remove unreacted H2O2 and was left to react for a further 1 min. At the pH used the ferryl haem protein is stable for several hours. Reductant was then added in 0.1M sodium phosphate pH 7.4 in a 1:1 volume ratio so that final concentration of ferryl myoglobin was 10 μM. The pH may be ‘jumped’ to other values where the ferryl haem is unstable using other strong buffers (e.g. 0.1M sodium acetate, pH 5). The optical spectrum was followed until reaction was complete. The time course (425 nm-408 nm) was fitted to a single exponential function using the least squares method. These rate constants were then plotted as a function of reductant concentration and this profile fitted (least squares method) to a double rectangular hyperbola (FIG. 1):
Where ka and kb are the maximum rates for each hyperbola and KD1 and KD2 are the dissociation constants, S is the concentration of the reductant and AR is the rate constant for ferryl auto-reduction.
Wild-type and recombinant sperm whale myoglobin and recombinant Tyr103>Phe sperm whale myoglobin were reacted with peroxide and the kinetics of ferryl haem reduction by deferiprone determined as described in example 1. The through-protein electron transfer pathway, evident in wild type sperm whale myoglobin, is not observed in the Tyr103>Phe mutant (FIG. 2).

| Molecule | concentration dependence of ferryl reduction rate constant (high affinity through-protein electron transfer pathway) [2] | further results |
| --- | --- | --- |
| wild type ferryl human haemoglobin: recombinant wild type human haemoglobin, alpha and beta subunits |  | concentration dependence of ferryl reduction rate constant, alpha subunit [1]: double rectangular hyperbola concentration dependence |
| wild type sperm whale myoglobin: wild-type recombinant sperm whale myoglobin | evident |  |
| Tyr103>Phe mutant: recombinant Tyr103>Phe sperm whale myoglobin | not observed |  |
| Horse myoglobin: ferric horse myoglobin from Sigma-Aldrich, further purified by gel filtration (protein, UniProt P68082 2-154, looked up, ferric, ferric horse myoglobin from Sigma-Aldrich, further purified by gel filtration) Myoglobin: GLSDGEWQQVLNVWGKVEADIAGHGQEVLIRLFTGHPETLEKFDKFKHLKTEAEMKASEDLKKHGTVVLTALGGILKKKGHHEAELKPLAQSHATKHKIPIKYLEFISDAIIHVLHSKHPGDFGADAQGAMTKALELFRNDIAAKYKELGFQG | shows a double rectangular hyperbola concentration dependence |  |
| myoglobin: myoglobin in its ferryl oxidation state, two site model based on FIGS. 1 and 2 data (protein, UniProt P02144 2-154, looked up, ferryl oxidation state) Myoglobin: GLSDGEWQLVLNVWGKVEADIPGHGQEVLIRLFKGHPETLEKFDKFKHLKSEDEMKASEDLKKHGATVLTALGGILKKKGHHEAEIKPLAQSHATKHKIPVKYLEFISECIIQVLQSKHPGDFGADAQGAMNKALELFRKDMASNYKELGFQG |  | kmax, transfer of an electron through the protein to the ferryl haem iron (high affinity site) ([2]; two site model of FIGS. 1 and 2 data, site at or close to Tyr103): ≈ 0.01 s^−1 |
